What was measured:
[1] = Mouse weight after 7 weeks of intraperitoneal injection in mouse model for prostate cancer; type: in vivo; settings: nude mice with LNCaP tumor; following 7 weeks of intraperitoneal injection; compared to control animals
Procedure: (§1) 20 nude mice are injected subcutaneously (right flank) with 0.5 ml of a 4 million cell/ml suspension (50% PBS 50% high concentration matrigel). Each mouse receives approximately 2 million cells. The mice are male, approximately 12 weeks of age and of the nude BalbC background.
(§2) 5 days following LNCaP tumor inoculation, mice are injected with an acetylated γ-glutamate-masked amoebapore, a non-acetylated γ-glutamate-masked amoebapore, and a control. Six control mice are injected with 200 μl of PBS and the remaining 14 mice are injected with 200 μl of a 1 mg/ml solution of either the acetylated or non-acetylated γ-glutamate-masked amoebapore peptide (i.e., 200 μg peptide per injection). Mice are injected intraperitoneally, twice per week. PSA levels are measured after three, five, and seven weeks of treatment. Lower PSA levels relative to control provide an objective indication that the procytotoxin is converted to its cytotoxic form and is able to lyse a target cell.
Additionally, mice are weighed following 7 weeks of intraperitoneal injection of a non-acetylated procytotoxin or an acetylated procytoxin in a mouse model for prostate cancer. […] Cachexia is a profound and marked state of constitutional disorder, representing general ill health. It is sometimes associated with an emaciated condition, such as cancerous cachexia seen in cases of a malignant tumor. […]

[2] = test system: LNCaP cells; assay: In vitro lysis of LNCaP cells measured by LDH release; type: cell-based, human; settings: concentration 160 μM
Procedure: Prior to tumor injection, in vitro studies are conducted to check the activity of the acetylated and non-acetylated procytotoxin, and to check the activity of the LNCaP cells for their ability to secrete PSA. Peptide activity is checked by a LDH Cytotoxicity Detection Kit (Roche).
Non-acetylated γ-glutamate-masked amoebapore (a modified cytotoxin comprising one or more γ-linked glutamate residues linked via a peptide bond to the epsilon amino group of at least one lysine, preferably the C-terminal-most lysine), and acetylated γ-glutamate-masked amoebapore are compared in vitro for their ability to lyse LNCaP cells, as measured by percent lactic acid dehydrogenase (LDH) release.

[3] = test system: LNCaP tumor; assay: Plasma PSA levels in mouse model for human prostate cancer (LNCaP tumor), intraperitoneal treatment; type: in vivo; settings: nude mice with LNCaP tumor; 200 μg peptide per injection, intraperitoneally, twice per week; PSA measured after three, five and seven weeks
Procedure: LNCaP cells lot #3475262 (Catalog # CRL-1740) are received from ATCC, quickly thawed at 37° C. and placed in culture immediately. Cells are cultured in RPMI media (supplemented with 10% FBS, 50,000 units of Penicillin and 50,000 ug Streptomycin) and grown at 37° C. in the presence of 5% CO2. Cells are passed when approximately 80% confluent until there are enough cells to do the in vivo studies.
as §1, §2

[4] = test system: nucleated cells; settings: high concentrations; cited from earlier work
[5] = target: prostate specific membrane antigen (human) (UniProt Q04609)

CC(=O)NC(CCC(=O)NC(CCC(=O)NCCCCC(N)C(N)=O)C(=O)O)C(=O)O (stereo not drawn) [Acetylated procytotoxin]
weight loss [1]: experienced the least weight loss | % LDH Release [2]: 29.94% | plasma PSA levels compared to control [3]: lowered PSA levels to a greater extent

NH2-Gly-Phe-Ile-Ala-Thr-Leu-Cys-Thr-Lys-Val-Leu-Asp-Phe-Gly-Ile-Asp-Lys-Leu-Ile-Gln-Leu-Ile-Glu-Asp-Lys-CONH2 (H-GFIATLCTKVLDFGIDKLIQLIEDK-NH2; listed as Entamoeba histolytica) [Amoebapore Helix 3, parent cytolytic peptide from Entamoeba histolytica amoebapore, third helix]
concentrations with cytolytic activity for nucleated cells [4]: 10 to 100 µM

acetylated γ-glutamate-masked amoebapore (peptide)
% LDH Release (% LDH Release) [5]: 29.9

non-acetylated γ-glutamate-masked amoebapore (peptide)
% LDH Release (% LDH Release) [5]: 38.5

Reference: patent US7550426B2, “Acetylated therapeutic procytotoxins” (GHC Research Development Corporation, priority 2005, dated 2009)
